Data from US8361964B2, “Growth hormone releasing factor (GRF) analogs and uses thereof” (Theratechnologies Inc., priority 2011, dated 2013).
Where a SMILES comes first, the peptide text is derived from it.

Legend:
Growth Hormone secretion [1] = assay: Growth Hormone secretion in female mice after subcutaneous GRF analog; format: in vivo; details: female CD-1 mice; 10 μg/mouse subcutaneous; plasma 10 minutes after injection
From the text: (§1) CD-1 mice (female, weighting from 20 to 25 g) were obtained from Charles River Inc. Animals were used according to a protocol of the Animal Care Committee along with the principles of the Guide for the Care and Use of Experimental Animals of the Canadian Council on Animal Care. The animals were maintained on standard laboratory chow under a 12:12 light:dark cycle. They were kept in groups of 4 mice per cage.
At the day of the experiment, mice received a subcutaneous injection of GRF analog (10 μg/mouse dissolved in 20 mM sodium acetate (AcONa)+5% mannitol at pH 5). 10 minutes after injection, the mice were anesthezied with isolufrane. Blood samples (500 μl) were obtained by intra-cardiac puncture. Blood was placed into microtainer pre-treated with K3EDTA and immediately centrifuged at 13,000 RPM in a desktop centrifuge for 2 minutes. The plasma was collected and placed into a screwcap Eppendorf™ tube and quick frozen in liquid nitrogen. The samples were then kept at −80° C. until assayed. Determination of GH levels was performed as described below.
(§2) Rat and mouse plasma samples were vortexed carefully and centrifuged at 9,000 RPM for 2 min at 4° C. The dosage of GH levels was performed using the Rat/Mouse Growth Hormone ELISA kit from Millipore (Cat. # EZRMGH-45K). Sample supernatants were first diluted 20-fold with the GH ELISA assay buffer, and 10 μl of this dilution was added to the ELISA plate with 90 μl of GH EIA assay buffer. The remaining of the procedure was performed according to the manufacturer's instructions, and the data obtained were analyzed using GraphPad Prism™ software.
(§3) The GRF analogs described herein were tested for their ability to induce GH release in female mice and rats. […] The data are presented in Tables III (mice) and IV-V (rats).

Growth Hormone secretion [2] = assay: Growth Hormone secretion in female rats after subcutaneous GRF analog; format: in vivo; details: female Sprague-Dawley rats; 10 μg/rat subcutaneous; plasma 0-60 minutes
From the text: as §1, with “Sprague-Dawley rats” for “CD-1 mice”, “250” for “20”, “300” for “25”, “rats” for “mice”
The animals were anesthetized with isoflurane 2.5%. A mid-section opening was made in the neck to expose the carotid artery. The carotid artery was canulated with polypropylene tubing (PE-50) to allow blood withdrawal. After surgical preparation, rats received a subcutaneous injection of GRF analog (10 μg/rat dissolved in 20 mM AcONa+5% mannitol at pH 5). For pharmacodynamics studies, blood samples (400 μL) were collected from 4 to 8 animals per group per time point. Blood samples (400 μl) were collected via the carotid catheter at 0, 10, 20, 30, 45 and 60 minutes after drug injection. Blood was placed into microtainer pre-treated with K3EDTA and immediately centrifuged at 13,000 RPM in a desktop centrifuge for 2 minutes. The plasma was collected and placed into a screw cap Eppendorf™ and quick frozen in liquid nitrogen. The samples were then kept at −80° C. until assayed. Determination of GH levels was performed as described below.
as §2, §3

## CC/C=C/CC(=O)N[C@@H](Cc1ccc(O)cc1)C(=O)N[C@@H](C)C(=O)N[C@@H](CC(=O)O)C(=O)N[C@@H](C)C(=O)N[C@H](C(=O)N[C@@H](Cc1ccccc1)C(=O)N[C@H](C(=O)N[C@@H](CC(=O)O)C(=O)N[C@@H](CO)C(=O)N[C@@H](Cc1ccc(O)cc1)C(=O)N[C@@H](CCCNC(=N)N)C(=O)N[C@@H](CCCCN)C(=O)N[C@H](C(=O)N[C@@H](CC(C)C)C(=O)N[C@@H](C)C(=O)N[C@@H](CCC(N)=O)C(=O)N[C@@H](CC(C)C)C(=O)N[C@@H](CCCCN)C(=O)N[C@@H](C)C(=O)N[C@@H](CCCNC(=N)N)C(=O)N[C@@H](CCC(N)=O)C(=O)N[C@@H](CC(=O)O)C(=O)N[C@H](C(=O)N[C@@H](CC(C)C)C(=O)N[C@@H](C)C(=O)N[C@@H](CCCNC(=N)N)C(N)=O)[C@@H](C)CC)C(C)C)[C@@H](C)O)[C@@H](C)CC [SEQ ID NO: 20, Trans-3-hexenoyl-YADAIFTDSYRKVLAQLKARQDILAR-NH2] (HELM PEPTIDE1{[CC/C=C/CC(=O)[*:2]].Y.A.D.A.I.F.T.D.S.Y.R.K.V.L.A.Q.L.K.A.R.Q.D.I.L.A.R.[am]}$$$$V2.0)
Growth Hormone secretion [1]
  GH levels 10 min: 307.7 ng/mL
Growth Hormone secretion [2]
  Mean AUC (GH Area Under the curve, GH concentration over time): 966
  Mean Cmax (ng/ml) of Growth Hormone secretion: 31.7 ng/mL

## CC[C@H](C)[C@H](NC(=O)[C@H](C)NC(=O)[C@H](CC(=O)O)NC(=O)[C@@H](C)NC(=O)[C@@H](N)Cc1ccc(O)cc1)C(=O)N[C@@H](Cc1ccccc1)C(=O)N[C@H](C(=O)N[C@@H](CC(=O)O)C(=O)N[C@@H](CO)C(=O)N[C@@H](Cc1ccc(O)cc1)C(=O)N[C@@H](CCCNC(=N)N)C(=O)N[C@@H](CCCCN)C(=O)N[C@H](C(=O)N[C@@H](CC(C)C)C(=O)N[C@@H](C)C(=O)N[C@@H](CCC(N)=O)C(=O)N[C@@H](CC(C)C)C(=O)N[C@@H](CCCCN)C(=O)N[C@@H](C)C(=O)N[C@@H](CCCNC(=N)N)C(=O)N[C@@H](CCC(N)=O)C(=O)N[C@@H](CC(=O)O)C(=O)N[C@H](C(=O)N[C@@H](CC(C)C)C(=O)N[C@@H](CO)C(=O)N[C@H](CCCNC(=N)N)C(N)=O)[C@@H](C)CC)C(C)C)[C@@H](C)O [SEQ ID NO: 21, Y-a-DAIFTDSYRKVLAQLKARQDILS-r-NH2] (HELM PEPTIDE1{Y.[dA].D.A.I.F.T.D.S.Y.R.K.V.L.A.Q.L.K.A.R.Q.D.I.L.S.[dR].[am]}$$$$V2.0)
Growth Hormone secretion [1]
  GH levels 10 min: 104.4 ng/mL
Growth Hormone secretion [2]
  Mean AUC (GH Area Under the curve, GH concentration over time): 3130
  Mean Cmax (ng/ml) of Growth Hormone secretion: 135.9 ng/mL

## CC[C@H](C)[C@H](NC(=O)[C@H](C)NC(=O)[C@H](CC(=O)O)NC(=O)[C@@H](C)NC(=O)[C@@H](N)Cc1ccc(O)cc1)C(=O)N[C@@H](Cc1ccccc1)C(=O)N[C@H](C(=O)N[C@@H](CC(=O)O)C(=O)N[C@@H](CO)C(=O)N[C@@H](Cc1ccc(O)cc1)C(=O)N[C@@H](CCCNC(=N)N)C(=O)N[C@@H](CCCCN)C(=O)N[C@H](C(=O)N[C@@H](CC(C)C)C(=O)N[C@@H](C)C(=O)N[C@@H](CCC(N)=O)C(=O)N[C@@H](CC(C)C)C(=O)N[C@@H](CCCCN)C(=O)N[C@@H](C)C(=O)N[C@@H](CCCNC(=N)N)C(=O)N[C@@H](CCC(N)=O)C(=O)N[C@@H](CC(=O)O)C(=O)N[C@@H](CC(C)C)C(=O)N[C@@H](CC(C)C)C(=O)N[C@@H](CO)C(=O)N[C@H](CCCNC(=N)N)C(N)=O)C(C)C)[C@@H](C)O [SEQ ID NO: 25, Y-a-DAIFTDSYRKVLAQLKARQDLLS-r-NH2] (HELM PEPTIDE1{Y.[dA].D.A.I.F.T.D.S.Y.R.K.V.L.A.Q.L.K.A.R.Q.D.L.L.S.[dR].[am]}$$$$V2.0)
Growth Hormone secretion [1]
  GH levels 10 min: 144.1 ng/mL

## CC/C=C/CC(=O)N[C@@H](Cc1ccc(O)cc1)C(=O)N[C@@H](C)C(=O)N[C@@H](CC(=O)O)C(=O)N[C@@H](C)C(=O)N[C@H](C(=O)N[C@@H](Cc1ccccc1)C(=O)N[C@H](C(=O)N[C@@H](CC(=O)O)C(=O)N[C@@H](CO)C(=O)N[C@@H](Cc1ccc(O)cc1)C(=O)N[C@@H](CCCNC(=N)N)C(=O)N[C@@H](CCCCN)C(=O)N[C@H](C(=O)N[C@@H](CC(C)C)C(=O)N[C@@H](C)C(=O)N[C@@H](CCC(N)=O)C(=O)N[C@@H](CC(C)C)C(=O)N[C@@H](CCCCN)C(=O)N[C@@H](C)C(=O)N[C@@H](CCCNC(=N)N)C(=O)N[C@@H](CCC(N)=O)C(=O)N[C@@H](CC(=O)O)C(=O)N[C@H](C(=O)N[C@@H](CC(C)C)C(=O)N[C@@H](C)C(=O)N[C@@H](CCCNC(=N)N)C(=O)N[C@@H](C)C(=O)N[C@@H](C)C(=O)N[C@@H](CCCNC(=N)N)C(N)=O)[C@@H](C)CC)C(C)C)[C@@H](C)O)[C@@H](C)CC [SEQ ID NO: 26, Trans-3-hexenoyl-YADAIFTDSYRKVLAQLKARQDILARAAR-NH2] (HELM PEPTIDE1{[CC/C=C/CC(=O)[*:2]].Y.A.D.A.I.F.T.D.S.Y.R.K.V.L.A.Q.L.K.A.R.Q.D.I.L.A.R.A.A.R.[am]}$$$$V2.0)
Growth Hormone secretion [1]
  GH levels 10 min: 484.6 ng/mL
Growth Hormone secretion [2]
  Mean AUC (GH Area Under the curve, GH concentration over time): 8880
  Mean Cmax (ng/ml) of Growth Hormone secretion: 468.1 ng/mL

## CC/C=C/CC(=O)N[C@@H](Cc1ccc(O)cc1)C(=O)N[C@@H](C)C(=O)N[C@@H](CC(=O)O)C(=O)N[C@@H](C)C(=O)N[C@H](C(=O)N[C@@H](Cc1ccccc1)C(=O)N[C@H](C(=O)N[C@@H](CC(=O)O)C(=O)N[C@@H](CO)C(=O)N[C@@H](Cc1ccc(O)cc1)C(=O)N[C@@H](CCCNC(=N)N)C(=O)N[C@@H](CCCCN)C(=O)N[C@H](C(=O)N[C@@H](CC(C)C)C(=O)N[C@@H](C)C(=O)N[C@@H](CCC(N)=O)C(=O)N[C@@H](CC(C)C)C(=O)N[C@@H](CO)C(=O)N[C@@H](C)C(=O)N[C@@H](CCCNC(=N)N)C(=O)N[C@@H](CCC(N)=O)C(=O)N[C@@H](CC(=O)O)C(=O)N[C@H](C(=O)N[C@@H](CC(C)C)C(=O)N[C@@H](C)C(=O)N[C@@H](CCCNC(=N)N)C(=O)N[C@@H](C)C(=O)N[C@@H](C)C(=O)N[C@@H](CCCNC(=N)N)C(=O)N[C@@H](C)C(=O)N[C@@H](C)C(=O)N[C@@H](CCCNC(=N)N)C(N)=O)[C@@H](C)CC)C(C)C)[C@@H](C)O)[C@@H](C)CC [SEQ ID NO: 27, Trans-3-hexenoyl-YADAIFTDSYRKVLAQLSARQDILARAARAAR-NH2] (HELM PEPTIDE1{[CC/C=C/CC(=O)[*:2]].Y.A.D.A.I.F.T.D.S.Y.R.K.V.L.A.Q.L.S.A.R.Q.D.I.L.A.R.A.A.R.A.A.R.[am]}$$$$V2.0)
Growth Hormone secretion [1]
  GH levels 10 min: 323.6 ng/mL
Growth Hormone secretion [2]
  Mean AUC (GH Area Under the curve, GH concentration over time): 8350
  Mean Cmax (ng/ml) of Growth Hormone secretion: 455.6 ng/mL

## CC[C@H](C)[C@H](NC(=O)[C@H](C)NC(=O)[C@H](CC(=O)O)NC(=O)[C@@H](C)NC(=O)[C@@H](N)Cc1ccc(O)cc1)C(=O)N[C@@H](Cc1ccccc1)C(=O)N[C@H](C(=O)N[C@@H](CC(=O)O)C(=O)N[C@@H](CO)C(=O)N[C@@H](Cc1ccc(O)cc1)C(=O)N[C@@H](CCCNC(=N)N)C(=O)N[C@@H](CCCCN)C(=O)N[C@H](C(=O)N[C@@H](CC(C)C)C(=O)N[C@@H](C)C(=O)N[C@@H](CCC(N)=O)C(=O)N[C@@H](CC(C)C)C(=O)N[C@@H](CCCCN)C(=O)N[C@@H](CC(C)C)C(=O)N[C@@H](CCCNC(=N)N)C(=O)N[C@@H](CCC(N)=O)C(=O)N[C@@H](CC(=O)O)C(=O)N[C@H](C(=O)N[C@@H](CC(C)C)C(=O)N[C@@H](C)C(=O)N[C@@H](CCCNC(=N)N)C(=O)N[C@@H](C)C(=O)N[C@@H](C)C(=O)N[C@@H](CCCNC(=N)N)C(=O)N[C@@H](C)C(=O)N[C@@H](C)C(=O)N[C@@H](CCCNC(=N)N)C(N)=O)[C@@H](C)CC)C(C)C)[C@@H](C)O [SEQ ID NO: 29, Y-a-DAIFTDSYRKVLAQLKLRQDILARAARAAR-NH2] (HELM PEPTIDE1{Y.[dA].D.A.I.F.T.D.S.Y.R.K.V.L.A.Q.L.K.L.R.Q.D.I.L.A.R.A.A.R.A.A.R.[am]}$$$$V2.0)
Growth Hormone secretion [1]
  GH levels 10 min: 457.7 ng/mL
Growth Hormone secretion [2]
  Mean AUC (GH Area Under the curve, GH concentration over time): 9442
  Mean Cmax (ng/ml) of Growth Hormone secretion: 466.7 ng/mL
